This is an account of results in patent US9187477B2, “Azabenzimidazole derivatives” (Boehringer Ingelheim International GmbH, priority 2013, dated 2015).

As a reminder, the pEC50 is the EC50 on a negative log10 scale, so that one unit is a factor of ten. Higher therefore signals a small EC50.

pEC50: −log10 of the molar value.

Data set [1] concerns the target AMPK complex 1 (containing alpha1beta1gamma1) (Homo sapiens (Human), UniProt Q13131+Q9Y478). Briefly: in vitro AMPK activation assay (ADP-Glo Kinase Assay). Format: biochemical. Particulars: AMPK alpha1beta1gamma1, ATP 30 μM, peptide 1 μM, 60 min, room temperature. The source says: Activated AMPK complex 1 (containing alpha1beta1gamma1) was obtained from baculovirus expression system. The gene encoding AMPK alpha1 was cloned into the pACG2T vector (BD Biosciences) to obtain a N-terminal Glutathion S transferase (GST)-fusion protein. The genes encoding AMPK beta1 and gamma1 were cloned into the p2Bac dual multiple cloning site vector (Invitrogen) with beta1 under the control of the p10 promoter and gamma1 under the control of the PH promoter. The transfer vectors containing AMPK were co-transfected individually with AcPNV BacMagic-3 DNA (EMD Millipore) in Sf9 cells and the recombinant baculoviruses were harvested after 5 days, followed by 3 rounds of amplification of the virus stock in Sf9 cells. AMPK (alpha1beta1gamma1) was expressed in High Five 5 cells by co-infection of recombinant alpha1 virus and recombinant beta1/gamma1 virus for 72 h at 27° C. Cells were harvested by centrifugation and lysed by 3 freeze/thaw cycles in PBS with 10% glycerol and protease inhibitor cocktail (Roche). After centrifugation AMPK a1b1g1 in the supernatant was captured by immobilized glutathione (GE Healthcare), impurities were washed away with PBS and AMPK alpha1beta1gamma1 was eluted with PBS containing 20 mM reduced gluthathione. The protein buffer was then exchanged to PBS with 10% glycerol and protein concentration was determined by UV absorbance.
The white 384-well Optiplates (cat. no. 6007299) were purchased from PerkinElmer. The V9101 ADP-Glo Kinase Assay and ultra pure ATP (V915A) was purchased from Promega. The substrate for AMPK (NH2-HMRSAMSGLHLVKRR_CONH2) was purchased from Upstate (12-355).
Compounds were tested in either serial dilutions or single dose concentrations. The serial compound dilutions were prepared in 100% DMSO automatically. The final DMSO concentration in the assay was 0.1%.
The Compound Stock Solutions were 10 mM in 100% DMSO. The compounds were solubilised at room temperature.
In the 384-well plates 1.25 ul of test compound in assay buffer was mixed with 1.25 ul of AMPK and 1.25 μl of the peptide (final concentration of 1 μM) and 1.25 μl of ATP (final concentration of 30 μM), both dissolved in assay buffer. This step was followed by an incubation time of 60 min. Then 5 μl of ADP Glo Reagent was added. This was followed by 40 min of incubation. Then 10 μl of Kinase Detection Reagent was admixed. The plates were sealed and after an incubation period of 30 min, the luminescence signal was measured in an Envision reader. All incubation steps were accomplished at room temperature.
Each assay microtiter plate contained wells with vehicle controls instead of compound (0.1% DMSO in water) as reference for the low signal (100% CTL, low signal), and wells with serial dilutions of AMP (final 30 μM) as reference for high signals.
The luminescence signal generated was proportional to the ADP concentration produced and was correlated with AMPK activity. The analysis of the data was performed by the calculation of the percentage of ATP consumption of AMPK in the presence of the test compound compared to the consumption of ATP in the presence of AMPK without compound. (RLU(sample)/RLU(low control))*100[RLU=relative luminescence units]
An activator of the AMPK enzyme gave values above 100% CTL.
EC50 values based on dose response curves are calculated with the XIFIT software using the 4 Parameter Logistic Model or Sigmoidal Dose-Response Model.
Background: ADP-Glo turns the ADP formed in a reaction into a luminescent signal.

Data set [2] can be described thus: Metabolic stability: metabolic degradation with pooled human liver microsomes. Format: in vitro ADME. Particulars: for c (control) (metabolic stability), remaining test compound after NADPH independent incubation: incubation without NADPH, after 2 hours, human liver microsomes; for t1/2 INVITRO: pooled human liver microsomes 1 mg/ml, 37° C., test compound 1 μM, NADPH 1 mM. How it is done:
The metabolic degradation of the test compound is assayed at 37° C. with pooled human liver microsomes. The final incubation volume of 100 μl per time point contains TRIS buffer pH 7.6 at room temperature (0.1 M), magnesium chloride (5 mM), microsomal protein (1 mg/ml) and the test compound at a final concentration of 1 μM.
Following a short preincubation period at 37° C., the reactions were initiated by addition of beta-nicotinamide adenine dinucleotide phosphate, reduced form (NADPH, 1 mM) and terminated by transferring an aliquot into solvent after different time points.
Additionally, the NADPH-independent degradation was monitored in incubations without NADPH, terminated at 2 hour time point. The [%] remaining test compound after NADPH independent incubation is reflected by the parameter c (control) (metabolic stability). A c (control) (metabolic stability) value around 100% excludes cofactor independent activities (e.g. from esterases).
The quenched incubations are pelleted by centrifugation (10000 g, 5 min).
An aliquot of the supernatant is assayed by LC-MS/MS for the amount of parent compound. The half-life (t1/2 INVITRO) is determined by the slope of the semilogarithmic plot of the concentration-time profile.
On the technique in general: Liver microsomes are a subcellular fraction often used to study metabolism.

AMPK complex 1 (containing alpha1beta1gamma1), sequence (Q13131 whole entry, the tested form may be a part): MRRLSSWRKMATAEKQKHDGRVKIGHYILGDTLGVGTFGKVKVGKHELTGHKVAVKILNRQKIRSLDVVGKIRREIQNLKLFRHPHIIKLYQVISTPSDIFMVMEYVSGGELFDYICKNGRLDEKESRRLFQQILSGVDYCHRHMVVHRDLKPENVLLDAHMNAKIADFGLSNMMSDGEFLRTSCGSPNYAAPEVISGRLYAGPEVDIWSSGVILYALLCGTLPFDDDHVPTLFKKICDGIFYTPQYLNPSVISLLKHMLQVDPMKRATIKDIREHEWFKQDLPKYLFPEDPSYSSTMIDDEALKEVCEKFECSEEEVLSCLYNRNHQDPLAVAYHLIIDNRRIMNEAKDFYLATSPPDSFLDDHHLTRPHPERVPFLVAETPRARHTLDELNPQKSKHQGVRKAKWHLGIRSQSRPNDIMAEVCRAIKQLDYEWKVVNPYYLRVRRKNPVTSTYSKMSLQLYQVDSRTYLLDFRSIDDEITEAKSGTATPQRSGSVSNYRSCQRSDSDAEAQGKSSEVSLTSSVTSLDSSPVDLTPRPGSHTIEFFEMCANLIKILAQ
AMPK complex 1 (containing alpha1beta1gamma1), sequence (Q9Y478 whole entry, the tested form may be a part): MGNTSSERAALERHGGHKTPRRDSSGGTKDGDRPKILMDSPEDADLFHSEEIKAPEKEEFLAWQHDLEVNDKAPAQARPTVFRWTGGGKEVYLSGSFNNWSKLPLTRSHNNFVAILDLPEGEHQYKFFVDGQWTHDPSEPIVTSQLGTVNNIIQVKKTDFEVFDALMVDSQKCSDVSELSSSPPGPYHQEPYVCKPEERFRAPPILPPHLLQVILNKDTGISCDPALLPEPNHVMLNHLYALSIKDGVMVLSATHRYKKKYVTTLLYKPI
AMPK complex 1 (containing alpha1beta1gamma1), sequence (P54619 whole entry partner, the tested form may be a part): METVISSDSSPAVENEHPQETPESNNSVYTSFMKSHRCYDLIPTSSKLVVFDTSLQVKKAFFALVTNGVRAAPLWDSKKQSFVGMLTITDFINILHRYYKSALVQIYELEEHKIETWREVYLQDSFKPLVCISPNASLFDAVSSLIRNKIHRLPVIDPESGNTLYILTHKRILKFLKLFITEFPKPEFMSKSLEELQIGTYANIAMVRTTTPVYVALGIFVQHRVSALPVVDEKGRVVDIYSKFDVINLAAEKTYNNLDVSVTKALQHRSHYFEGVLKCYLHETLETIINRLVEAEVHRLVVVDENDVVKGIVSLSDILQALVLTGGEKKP

`O=C(O[C@H]1CC[C@@H](c2ccc(-c3nc4[nH]c(O[C@@H]5CO[C@H]6[C@@H]5OC[C@H]6O)nc4cc3Cl)cc2)CC1)N1CCCC1` [Example 13, (cis)-4-(4-(6-Chloro-2-((3R,3aR,6R,6aR)-6-hydroxyhexahydrofuro[3,2-b]furan-3-yloxy)-3H-imidazo[4,5-b]pyridin-5-yl)phenyl)cyclohexyl pyrrolidine-1-carboxylate] gave a negative-log EC50 (pEC50) in data set [1] of 5.69.
Compound `CCNC(=O)O[C@H]1CC[C@H](c2ccc(-c3nc4[nH]c(O[C@@H]5CO[C@H]6[C@@H]5OC[C@H]6O)nc4cc3Cl)cc2)CC1` [Example 7, (trans)-4-(4-(6-Chloro-2-((3R,3aR,6R,6aR)-6-hydroxyhexahydrofuro[3,2-b]furan-3-yloxy)-3H-imidazo[4,5-b]pyridin-5-yl)phenyl)cyclohexyl ethylcarbamate] gave a pEC50 in data set [1] of 6.33.
For `O=C(O[C@H]1CC[C@H](c2ccc(-c3nc4[nH]c(O[C@@H]5CO[C@H]6[C@@H]5OC[C@H]6O)nc4cc3Cl)cc2)CC1)N1CCCC1` [Example 9, (trans)-4-(4-(6-Chloro-2-((3R,3aR,6R,6aR)-6-hydroxyhexahydrofuro[3,2-b]furan-3-yloxy)-3H-imidazo[4,5-b]pyridin-5-yl)phenyl)cyclohexyl pyrrolidine-1-carboxylate], in data set [2], the “c (control) (metabolic stability), remaining test compound after NADPH independent incubation” value worked out at 100% and the “t1/2 INVITRO” value is more than 2.17 h. In data set [1], this compound had a pEC50 of 7.77.
Take `O=C(OC1CCN(c2ccc(-c3nc4[nH]c(O[C@@H]5CO[C@H]6[C@@H]5OC[C@H]6O)nc4cc3Cl)cc2)CC1)N1CCOCC1` [Example 15, 1-(4-(6-Chloro-2-((3R,3aR,6R,6aR)-6-hydroxyhexahydrofuro[3,2-b]furan-3-yloxy)-3H-imidazo[4,5-b]pyridin-5-yl)phenyl)piperidin-4-yl morpholine-4-carboxylate]: the pEC50 in data set [1] is 6.88.
Still for that read-out and setting: with `O=C(O[C@H]1CC[C@@H](c2ccc(-c3nc4[nH]c(O[C@@H]5CO[C@H]6[C@@H]5OC[C@H]6O)nc4cc3Cl)cc2)CC1)N1CCOCC1` [Example 12, (cis)-4-(4-(6-Chloro-2-((3R,3aR,6R,6aR)-6-hydroxyhexahydrofuro[3,2-b]furan-3-yloxy)-3H-imidazo[4,5-b]pyridin-5-yl)phenyl)cyclohexyl morpholine-4-carboxylate] the figure was 5.88.
Still for that read-out and setting: with `CC(C)OC(=O)NC1CCN(c2ccc(-c3nc4[nH]c(O[C@@H]5CO[C@H]6[C@@H]5OC[C@H]6O)nc4cc3Cl)cc2)CC1` [Example 16, Isopropyl 1-(4-(6-chloro-2-((3R,3aR,6R,6aR)-6-hydroxyhexahydrofuro[3,2-b]furan-3-yloxy)-3H-imidazo[4,5-b]pyridin-5-yl)phenyl)piperidin-4-ylcarbamate] the figure was 6.54.
As for `CC(C)NC(=O)O[C@H]1CC[C@H](c2ccc(-c3nc4[nH]c(O[C@@H]5CO[C@H]6[C@@H]5OC[C@H]6O)nc4cc3Cl)cc2)CC1` [Example 8, (trans)-4-(4-(6-Chloro-2-((3R,3aR,6R,6aR)-6-hydroxyhexahydrofuro[3,2-b]furan-3-yloxy)-3H-imidazo[4,5-b]pyridin-5-yl)phenyl)cyclohexyl isopropylcarbamate], in data set [2], the “c (control) (metabolic stability), remaining test compound after NADPH independent incubation” value is given as 102% and the “t1/2 INVITRO” value was more than 2.17 h. The compound also had a pEC50 in data set [1] of 6.47.
For `O=C(N[C@H]1CC[C@@H](c2ccc(-c3nc4[nH]c(O[C@@H]5CO[C@H]6[C@@H]5OC[C@H]6O)nc4cc3Cl)cc2)CC1)OC1CCOCC1` [Example 5, Tetrahydro-2H-pyran-4-yl (cis)-4-(4-(6-chloro-2-((3R,3aR,6R,6aR)-6-hydroxyhexahydrofuro[3,2-b]furan-3-yloxy)-3H-imidazo[4,5-b]pyridin-5-yl)phenyl)cyclohexylcarbamate] the same measures were 106%, 1.13 h and 6.92.
Turning to `O=C(N[C@H]1CC[C@@H](c2ccc(-c3nc4[nH]c(O[C@@H]5CO[C@H]6[C@@H]5OC[C@H]6O)nc4cc3Cl)cc2)CC1)OC1CCCC1` [Example 3, Cyclopentyl (cis)-4-(4-(6-chloro-2-((3R,3aR,6R,6aR)-6-hydroxyhexahydrofuro[3,2-b]furan-3-yloxy)-3H-imidazo[4,5-b]pyridin-5-yl)phenyl)cyclohexylcarbamate], in data set [2], the “c (control) (metabolic stability), remaining test compound after NADPH independent incubation” value worked out at 117% and the “t1/2 INVITRO” value worked out at 0.317 h. Besides, the pEC50 in data set [1] is 6.97.
The like results for `CC(C)NC(=O)O[C@H]1CC[C@@H](c2ccc(-c3nc4[nH]c(O[C@@H]5CO[C@H]6[C@@H]5OC[C@H]6O)nc4cc3Cl)cc2)CC1` [Example 11, (cis)-4-(4-(6-Chloro-2-((3R,3aR,6R,6aR)-6-hydroxyhexahydrofuro[3,2-b]furan-3-yloxy)-3H-imidazo[4,5-b]pyridin-5-yl)phenyl)cyclohexyl isopropylcarbamate] were, in that order, 106%, 1.83 h and 7.46.
The like results for `CN(C)C(=O)OC1CCN(c2ccc(-c3nc4[nH]c(O[C@@H]5CO[C@H]6[C@@H]5OC[C@H]6O)nc4cc3Cl)cc2)CC1` [Example 2, 1-(4-(6-Chloro-2-((3R,3aR,6R,6aR)-6-hydroxyhexahydrofuro[3,2-b]furan-3-yloxy)-3H-imidazo[4,5-b]pyridin-5-yl)phenyl)piperidin-4-yl dimethylcarbamate] were, in that order, 109%, 1.85 h and 7.49.
For `CCOC(=O)NC1CCN(c2ccc(-c3nc4[nH]c(O[C@@H]5CO[C@H]6[C@@H]5OC[C@H]6O)nc4cc3Cl)cc2)CC1` [Example 1, Ethyl 1-(4-(6-chloro-2-((3R,3aR,6R,6aR)-6-hydroxyhexahydrofuro[3,2-b]furan-3-yloxy)-3H-imidazo[4,5-b]pyridin-5-yl)phenyl)piperidin-4-ylcarbamate] the same measures were 100%, more than 2.17 h and 8.92.
In the case of `CC(C)NC(=O)OC1CCN(c2ccc(-c3nc4[nH]c(O[C@@H]5CO[C@H]6[C@@H]5OC[C@H]6O)nc4cc3Cl)cc2)CC1` [Example 14, 1-(4-(6-Chloro-2-((3R,3aR,6R,6aR)-6-hydroxyhexahydrofuro[3,2-b]furan-3-yloxy)-3H-imidazo[4,5-b]pyridin-5-yl)phenyl)piperidin-4-yl isopropylcarbamate], the negative-log EC50 (pEC50) in data set [1] was 6.24.
